Legend:
[1] = Case study of a person with GLUT1 deficiency; type: in vivo, human; conditions: 30 grams per day oral, single patient
Source text: Evidence for the efficacy of L-serine therapy for glucose deficiency syndrome is supported by a case-study of a person (“the patient”) who suffered ataxia, developmental impairment, reduced social interaction, and fine motor skill deficits as a result of their GLUT1 deficiency. In subjects suffering from glucose deficiency syndrome, there is insufficient glucose transported across the brain to allow proper functioning of brain cells. Since L-serine is transported through a different mechanism across the blood brain barrier, it is possible to increase intracranial glucose concentrations through administration of high doses of L-serine. The patient was administered 30 grams of L-serine per day by oral administration.

[2] = Glucose in cerebral spinal fluid of vervets fed L-serine; type: in vivo, vervets (Chlorocebus pygerythrus)
Description: […]. These were compared to four control vervets who were fed daily control doses of 651 mg/day of rice powder for 42 days.
Cerebral spinal fluid samples were taken during the experiment. The cerebral spinal fluid samples from vervets fed L-serine were compared to cerebral spinal fluid samples from control vervets at 42 days.
Frozen cerebral spinal fluid (CSF) was prepared using equal volumes of CSF and 20% w/v TCA. The combined volume was sonicated (Fisher Scientific Sonic Dismembrator, Model 100) on ice at 2 watts (10 s×3) and left to precipitate at room temperature for 30 minutes. The sample was then centrifuged (Labnet Spectrafuge 16M) at 14,000 g for 5 min. […]
CSF extracts were analyzed on a TSQ Quantiva (Thermo Scientific) triple quadrupole mass spectrometer with an Ultra High Pressure Liquid Chromatography (Waters Acquity-UHPLC) system equipped with a Binary Solvent Manager, Sample Manager, and an Acquity UPLC BEH Amide column (#186004801, 100×2.1 mm, 1.7 μm) at 50° C. […]
The mass spectrometer was operated with a heated electrospray ionization (H-ESI) probe and sheath gas pressure set to 40 (Arb), aux gas set to 2 (Arb), and sweep gas set to 1 (Arb). Samples were analyzed in negative ion mode with a vaporizer temperature of 350° C., capillary temperature of 130° C., and spray voltage 2800v. […]

[3] = tested on: human neuroblastoma cells (SH-SY5Y); assay: Glucose synthesis by SH-SY5Y cells given L-serine (Amplex Red Glucose Assay, culture medium); type: cell-based; conditions: 100, 200 and 500 mM L-serine; 0, 24 and 48 hrs; medium deficient in glucose
Description: Cell Culture: SH-SY5Y human neuroblastoma (PD19, […]) were cultured in 150 cm^2 flasks in Dulbecco's Modified Eagle's Medium/Nutrient F-12 Ham (Sigma-Aldrich, Cat. No. D8437) containing 10% fetal bovine serum (FBS), 4 mM L-glutamine, 100 U/mL penicillin, and 100 μg/mL streptomycin at 37° C. (Complete Medium) in a humidified atmosphere of 5% CO2 and 95% air. At between 70 and 90% confluence, the cells were trypsinized with 0.5% Trypsin-EDTA (Thermo Fisher, Cat. No. 15400054) and then 2.5×10^5 cells/well plated in twenty-four-well plates and allowed to adhere overnight (PD22). The following day, the cell culture medium was aspirated, and the cells were washed three times in warm […] Hanks buffered salt solution (HBSS). […] Glucose concentrations were measured using the Amplex® Red Glucose/Glucose Oxidase Assay Kit (Invitrogen). […] Fluorescence was read at excitation 540 nm and emission […] in SoftMax Pro version 7.0.2 on a Molecular Devices Flexstation 3. Glucose concentrations in the samples were calculated from the standard curve. […] Human neuroblastoma cells were incubated in medium deficient in glucose and L-serine, but supplemented with increasing concentrations of L-[…], 200 and 500 mM) for 0, 24 and 48 hrs, then glucose concentrations in the culture medium measured using the Amplex® Red Glucose Assay (Invitrogen).

[4] = up to 30 g/day over a six-month period; 20 ALS patients; cited from earlier work
[5] = Randomized, placebo-controlled double-blinded study of cognitive ability in healthy post-menopausal women (Rey Auditory Verbal Learning Test); type: in vivo, human; conditions: 15 g/day for 60 days
Source text: This Example describes a nutritional experiment conducted on post-menopausal women. The study was designed to determine if dietary supplementation with L-[…] grams/day) improves cognitive ability in healthy women when administered over a 60-day period. Forty-eight women ages 55 years, who had not been diagnosed with mild cognitive impairment, probable dementia, or Alzheimer's disease participated as volunteers in this randomized, placebo-controlled double-blinded study. Forty-three women completed the study. Cognitive abilities of each participant were assessed in several different cognitive domains by using the NIH toolbox (Gershon et al, 2013) on an I-Pad, founded on earlier test procedures developed by Atkinson and […] (1968). Cognitive tests included the Rey Auditory Verbal Learning Test which broadly assesses short-term auditory and verbal learning (King et al. 1998). For example, in one test participants were presented 15 unrelated words and asked to repeat them again after 30 minutes. The cognitive assessment was administered to participants at the beginning and the end of the sixty-day study period. The assessment procedure lasted 45 minutes for each individual. L-serine gummies, each at 2.2 grams total weight, and each containing 1.0 grams of L-serine were manufactured in a cGMP FDA-compliant facility by […]). Placebo gummies were manufactured in a similar manner. […] The gummies were placed in sealed foil packets, each packet containing 15 gummies. Microbiological analysis indicated the gummies to be free of bacterial contamination. The materials used for packaging were manufactured by ESP Packaging LLC (Costa Mesa, CA). Each individual foil packet was labeled with a lot number containing the Julian code date. […] The differences between the beginning and end score for each participant in the L-serine treatment and placebo treatment groups were evaluated using a Wilcoxon-Mann-Whitney test with p<0.05 as the significance level. […]

[6] = Storage stability of L-serine; type: physicochemical; conditions: 24 month storage, room temperature (<30° C.), relative humidity <75%

N[C@@H](CO)C(=O)O [L-serine]
fine motor skills, including handwriting [1]: improved fine motor skills
social interaction [1]: improved social interaction
patient's condition (ability to ride a bicycle and carry cargo) ([1]; within several weeks): rapid improvement
increase of glucose levels versus control vervets ([2]; 651 mg/day oral for 42 days, significant at p<0.005): great than doubling
median level of glucose in CSF ([2]; vervets fed 651 mg/day L-serine for 42 days, CSF at 42 days, control 24 mg/100 ml, p<0.005): 58 mg/100 ml
glucose concentration in the culture medium compared to Control (0 mM L-serine) [3]: No significant increase
safety [4]: safe
delayed list recall ([5]; did not achieve statistical significance): trend towards improvement
mean improvement on the Rey Auditory Verbal Learning Test ([5]; final minus beginning score, placebo 4.0): 7.9
improvement in learning ability (Rey Auditory Verbal Learning Test) compared to the placebo group ([5]; p<0.01): 98%
changes in optical rotation or purity on storage [6]: No significant changes
stability on storage [6]: extraordinarily stable

Source: patent US12691087B2, “Method of enhancing glucose levels in the central nervous system” (THE INSTITUTE FOR ETHNOMEDICINE, priority 2018, dated 2026)
